Tests used:
Type in all cases: in vivo
[1] = tested on: Glutathione S-transferase, mu1 (Gstm1); assay: Intestinal gene expression: Gstm1; conditions: mouse intestine; diet 1 ppm Se, 100 days; vs Se-deficient diets; negative = down; NS = not significant
Description: (§1) Animal Care. Male C57BL/6J mice were housed singly and started on the experimental diets described below immediately after weaning (21 days of age). The mice were maintained in the Shared Aging Rodent Facility at the William S. Middleton Memorial Veterans Administration Medical Center (Madison, Wis.). Temperature and humidity were maintained at constant levels. Room light was controlled to provide 12-hr cycles of light and dark.
(§2) Experimental diets were created by Harlan Teklad (Madison, Wis.). Selenium content of the diets was determined by Covance Inc. (Madison, Wis.). Five (5) animals were included in each of the following treatment groups: a diet deficient in selenium (SD); a diet supplemented with selenomethionine (SM, obtained from Sigma, St. Louis, Mo.) such that the final selenium content of the diet was one (1) part per million; a diet supplemented with sodium selenite (SS, Sigma) such that the final concentration of selenium in this diet was one (1) part per million; or a diet supplemented with the yeast selenium SEL-PLEX (SP, Alltech, Lexington, Ky), such that the final concentration of selenium in this diet was one (1) part per million. SEL-PLEX. […]
(§3) Tissue sample preparation and microarray analysis. […] For intestinal expression studies, the intestine was flushed twice with saline solution and small intestine was measured and divided in three equal segments. […]

[2] = tested on: Glutathione S-transferase, theta 2 (Gstt2); assay: Intestinal gene expression: Gstt2; conditions: mouse intestine; diet 1 ppm Se, 100 days; vs Se-deficient diets; negative = down; NS = not significant
Description: as §1, §2, §3

SOD1 = assay: Intestinal gene expression: SOD1; conditions: mouse intestine; diet 1 ppm Se, 100 days; vs selenium deficient
Description: as §1, §2, §3

[3] = tested on: Glutathione S-transferase, mu3 (Gstm3); assay: Intestinal gene expression: Gstm3; conditions: mouse intestine; diet 1 ppm Se, 100 days; vs Se-deficient diets; negative = down; NS = not significant
Description: as §1, §2, §3

[4] = tested on: Glutathione S-transferase, mu2 (Gstm2); assay: Intestinal gene expression: Gstm2; conditions: mouse intestine; diet 1 ppm Se, 100 days; vs Se-deficient diets; negative = down; NS = not significant
Description: as §1, §2, §3

[5] = tested on: Cu chaperone for SOD, (CCS); assay: Intestinal gene expression: Cu chaperone for SOD; conditions: mouse intestine; diet 1 ppm Se, 100 days; vs selenium deficient
Description: as §1, §2, §3

[6] = tested on: sprouty homolog 2 gene (Spry2); assay: Intestinal gene expression: Spry2; conditions: mouse intestine; diet 1 ppm Se, 100 days; relative to Se-deficient controls
Description: as §1, §2, §3

[7] = tested on: Thioredoxin Reductase 1 (Trx-1); assay: Intestinal gene expression: Thioredoxin Reductase 1; conditions: mouse intestine; diet 1 ppm Se, 100 days; vs selenium deficient; all p < 0.01
Description: as §1, §2, §3

calpain-5 = assay: Expression level of calpain genes after selenium administration; conditions: signed change (+ up, − down); tissue not stated; * not explained
Experimental: Compositions and methods of the present invention were analyzed to determine if they were capable of altering the expression levels of calpain genes. Compositions comprising various forms of selenium (e.g., SeM, Sod-sel, and SEL-PLEX) were administered to subjects and the expression levels of calpain genes monitored. The expression level of calpain-5 was altered by treatment in the following ways: free selenomethionine (SM)+1.32*, Sod-sel−1.07, SEL-PLEX−1.44*.

Structure (SMILES): O=[Se](O)O [Sod-sel, sodium selenite]
- FC Gstm1 expression [1]: −2.4 fold
- FC Gstt2 expression [2]: −1.3 fold
- enhanced expression of SOD1 (SOD1): 1.92 fold
- FC Gstm3 expression [3]: −2.7 fold
- FC Gstm2 expression [4]: −2.1 fold
- enhancement in the expression of the Cu chaperone for SOD (CCS) [5]: 1.28 fold

Structure (SMILES): C[Se]CC[C@H](N)C(=O)O [SeM, selenomethionine]
- Spry2 gene expression, reduction [6]: no alteration
- fold increase in expression of the Thioredoxin Reductase 1 gene [7]: 1.8 fold
- expression level of calpain-5 altered by treatment (calpain-5): +1.32
